Measurements: patent publication US20190345138A1, “HETEROCYCLIC AMIDES AS KINASE INHIBITORS” (GlaxoSmithKline Intellectual Property Development Limited, priority 2016, published 2019)
Where “and” joins values, the source holds several entries; their conditions need not be identical. Identical values can stand only once.

Columns and labels:
RIP1 kinase = biological target: T1, RIP1 kinase (Homo sapiens, UniProt Q13546); test: fluorescent polarization based binding assay; conditions: mean of a minimum of 2 experiments
T1 sequence (Q13546 1-375 limits assumed): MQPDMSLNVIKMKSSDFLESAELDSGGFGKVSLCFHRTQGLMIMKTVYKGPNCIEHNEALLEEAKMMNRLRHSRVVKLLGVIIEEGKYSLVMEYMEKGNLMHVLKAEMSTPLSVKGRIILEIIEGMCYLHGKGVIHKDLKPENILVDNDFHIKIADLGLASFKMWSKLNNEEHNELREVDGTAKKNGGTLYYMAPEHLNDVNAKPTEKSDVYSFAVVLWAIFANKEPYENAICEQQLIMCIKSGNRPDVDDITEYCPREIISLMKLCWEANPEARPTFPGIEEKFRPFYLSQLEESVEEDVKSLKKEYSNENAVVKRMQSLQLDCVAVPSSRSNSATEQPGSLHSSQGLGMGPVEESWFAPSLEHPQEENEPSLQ
Description: A fluorescent polarization based binding assay was used to assess the activity of the compounds of this invention, the details of which are disclosed in International Patent Appln. No. PCT/IB2014/059004, now, International Patent Appln. Pub.

[1] = system: human monocytic leukemia U937 cells; test: necroptosis assay in U937 cells; type: cell-based; conditions: Homo sapiens, U-937, U937 cells; viability by cellular ATP (Cell Titer-Glo); read-out: pIC50, inhibited necrosis in U937 cells (converted)
Protocol: The efficacy of RIP1 inhibitors can be tested […] in vitro using a human monocytic leukemia U937 or mouse L929 fibrosarcoma cells in a necroptosis assay. As determined using the method described in S. He et al., Cell, 137(6):1100-1111 (2009) and International Patent Appln. No. PCT/IB2014/059004, now, International Patent Appln. Pub.
Viability was measured by quantitating cellular levels of ATP using the Cell Titer-Glo kit. All data are means±standard deviation of the mean.

| SMILES | IC50 (RIP1 kinase) | IC50 [1] [nM] |
| --- | --- | --- |
| NC(=O)c1nc(N2CCC(C(=O)N3N=CC[C@H]3c3cncc(F)c3)CC2)ncc1F [Example 161, (S)-5-fluoro-2-(4-(5-(5-fluoropyridin-3-yl)-4,5-dihydro-1H-pyrazole-1-carbonyl)piperidin-1-yl)pyrimidine-4-carboxamide] | 1 to 31.6 nM | 1 to 100 |
| O=C(C1CCN(c2ncc(-c3ccccc3)o2)CC1)N1N=CC[C@H]1c1ccccc1 [Example 67, (S)-(5-phenyl-4,5-dihydro-1H-pyrazol-1-yl)(1-(5-phenyloxazol-2-yl)piperidin-4-yl)methanone] | 1 to 31.6 nM | 1 to 100 |
| O=C(C1CCN(c2nccc(C3=NCCN3)n2)CC1)N1N=CC[C@H]1c1ccccc1 [Example 140, (S)-(1-(4-(4,5-dihydro-1H-imidazol-2-yl)pyrimidin-2-yl)piperidin-4-yl)(5-phenyl-4,5-dihydro-1H-pyrazol-1-yl)methanone] | 1 to 31.6 nM and 1 to 10 nM | 1 to 100 |
| CSc1nccc(N2CCC(C(=O)N3N=CC[C@H]3c3ccccc3)CC2)n1 [Example 45, (S)-(1-(2-(methylthio)pyrimidin-4-yl)piperidin-4-yl)(5-phenyl-4,5-dihydro-1H-pyrazol-1-yl)methanone] | 1 to 31.6 nM and 1 to 10 nM | 1 to 100 |
| CCOc1ccnc(N2CCC(C(=O)N3N=CC[C@H]3c3ccccc3)CC2)n1 [Example 58, (S)-(1-(4-ethoxypyrimidin-2-yl)piperidin-4-yl)(5-phenyl-4,5-dihydro-1H-pyrazol-1-yl)methanone] | 1 to 31.6 nM and 1 to 10 nM | 1 to 100 |
| Nc1ccnc(N2CCC(C(=O)N3N=CC[C@H]3c3cc(F)cc(F)c3)CC2)n1 [Example 93, (S)-(1-(4-aminopyrimidin-2-yl)piperidin-4-yl)(5-(3,5-difluorophenyl)-4,5-dihydro-1H-pyrazol-1-yl)methanone] | 1 to 31.6 nM | 1 to 100 |
| O=C1Cc2cnc(N3CCC(C(=O)N4N=CC[C@H]4c4ccccc4)CC3)nc2N1 [Example 24, (S)-2-(4-(5-phenyl-4,5-dihydro-1H-pyrazole-1-carbonyl)piperidin-1-yl)-5H-pyrrolo[2,3-d]pyrimidin-6(7H)-one] | 1 to 31.6 nM | 1 to 100 |
| N#Cc1cnc(N2CCC(C(=O)N3N=CC[C@H]3c3cc(F)cc(F)c3)CC2)o1 [Example 133, (S)-2-(4-(5-(3,5-difluorophenyl)-4,5-dihydro-1H-pyrazole-1-carbonyl)piperidin-1-yl)oxazole-5-carbonitrile] | 1 to 31.6 nM and 1 to 10 nM | 1 to 100 |
| O=C(C1CCN(c2nccc(=O)[nH]2)CC1)N1N=CC[C@H]1c1ccccc1 [Example 19, (S)-2-(4-(5-phenyl-4,5-dihydro-1H-pyrazole-1-carbonyl)piperidin-1-yl)pyrimidin-4(3H)-one] | 1 to 31.6 nM | 1 to 100 |
| O=C(C1CCN(c2nnc(-c3ccccc3)o2)CC1)N1N=CC[C@H]1c1ccccc1 [Example 57, (S)-(1-(5-phenyl-1,3,4-oxadiazol-2-yl)piperidin-4-yl)(5-phenyl-4,5-dihydro-1H-pyrazol-1-yl)methanone] | 1 to 31.6 nM | 1 to 100 |
| COc1nc(N)cc(N2CCC(C(=O)N3N=CC[C@H]3c3ccccc3)CC2)n1 [Example 35, (S)-(1-(6-amino-2-methoxypyrimidin-4-yl)piperidin-4-yl)(5-phenyl-4,5-dihydro-1H-pyrazol-1-yl)methanone] | 1 to 31.6 nM | 1 to 100 |
| NC(=O)c1cncc(N2CCC(C(=O)N3N=CC[C@H]3c3ccccc3)CC2)n1 [Example 31, (S)-6-(4-(5-phenyl-4,5-dihydro-1H-pyrazole-1-carbonyl)piperidin-1-yl)pyrazine-2-carboxamide] | 1 to 31.6 nM | 1 to 100 |
| COc1cnc(N2CCC(C(=O)N3N=CCC3c3ccccc3)CC2)nc1 (racemic) [Example 7, (1-(5-methoxypyrimidin-2-yl)piperidin-4-yl)(5-phenyl-4,5-dihydro-1H-pyrazol-1-yl)methanone] | 1 to 31.6 nM | 1 to 100 |
| O=C(C1CCN(c2nccc(=O)[nH]2)CC1)N1N=CC[C@H]1c1cc(F)cc(F)c1 [Example 97, (S)-2-(4-(5-(3,5-difluorophenyl)-4,5-dihydro-1H-pyrazole-1-carbonyl)piperidin-1-yl)pyrimidin-4(3H)-one] | 1 to 31.6 nM | 1 to 100 |
| COc1ccnc(N2CCC(C(=O)N3N=CC[C@H]3c3cccc(C#N)c3)CC2)n1 [Example 69, (S)-3-(1-(1-(4-methoxypyrimidin-2-yl)piperidine-4-carbonyl)-4,5-dihydro-1H-pyrazol-5-yl)benzonitrile] | 1 to 31.6 nM and 1 to 10 nM | 1 to 100 |
| O=C(c1ccnc(N2CCC(C(=O)N3N=CC[C@H]3c3ccccc3)CC2)n1)N1CCOCC1 [Example 145, (S)-(1-(4-(morpholine-4-carbonyl)pyrimidin-2-yl)piperidin-4-yl)(5-phenyl-4,5-dihydro-1H-pyrazol-1-yl)methanone] | 1 to 31.6 nM | 1 to 100 |
| NC(=O)c1ncnc(N2CCC(C(=O)N3N=CC[C@H]3c3cc(F)cc(F)c3)CC2)c1F [Example 165, (S)-6-(4-(5-(3,5-difluorophenyl)-4,5-dihydro-1H-pyrazole-1-carbonyl)piperidin-1-yl)-5-fluoropyrimidine-4-carboxamide] | 1 to 31.6 nM and 1 to 10 nM | 1 to 100 |
| NC(=O)c1csc(N2CCC(C(=O)N3N=CC[C@H]3c3ccccc3)CC2)n1 [Example 56, (S)-2-(4-(5-phenyl-4,5-dihydro-1H-pyrazole-1-carbonyl)piperidin-1-yl)thiazole-4-carboxamide] | 1 to 31.6 nM | 1 to 100 |
| N#Cc1cccc([C@@H]2CC=NN2C(=O)C2CCN(c3ncc4cn[nH]c4n3)CC2)c1 [Example 76, (S)-3-(1-(1-(1H-pyrazolo[3,4-d]pyrimidin-6-yl)piperidine-4-carbonyl)-4,5-dihydro-1H-pyrazol-5-yl)benzonitrile] | 1 to 31.6 nM | 1 to 100 |
| Nc1nccc(N2CCC(C(=O)N3N=CC[C@H]3c3cc(F)cc(F)c3)CC2)n1 [Example 84, (S)-(1-(2-aminopyrimidin-4-yl)piperidin-4-yl)(5-(3,5-difluorophenyl)-4,5-dihydro-1H-pyrazol-1-yl)methanone] | 1 to 31.6 nM | 1 to 100 |
| COc1ccnc(N2CCC(C(=O)N3N=CC[C@H]3c3cc(F)cc(F)c3)CC2)n1 [Example 79, (S)-(5-(3,5-difluorophenyl)-4,5-dihydro-1H-pyrazol-1-yl)(1-(4-methoxypyrimidin-2-yl)piperidin-4-yl)methanone] | 1 to 31.6 nM and 1 to 10 nM | 1 to 100 |
| CNc1nccc(N2CCC(C(=O)N3N=CC[C@H]3c3cc(F)cc(F)c3)CC2)n1 [Example 100, (S)-(5-(3,5-difluorophenyl)-4,5-dihydro-1H-pyrazol-1-yl)(1-(2-(methylamino)pyrimidin-4-yl)piperidin-4-yl)methanone] | 1 to 31.6 nM | 1 to 100 |
| CSc1nc(N)cc(N2CCC(C(=O)N3N=CC[C@H]3c3ccccc3)CC2)n1 [Example 60, (S)-(1-(6-amino-2-(methylthio)pyrimidin-4-yl)piperidin-4-yl)(5-phenyl-4,5-dihydro-1H-pyrazol-1-yl)methanone] | 1 to 31.6 nM | 1 to 100 |
| COc1cnc(N2CCC(C(=O)N3N=CC[C@H]3c3cc(F)ccc3F)CC2)nc1 [Example 101, (S)-(5-(2,5-difluorophenyl)-4,5-dihydro-1H-pyrazol-1-yl)(1-(5-methoxypyrimidin-2-yl)piperidin-4-yl)methanone] | 1 to 31.6 nM and 1 to 10 nM | 1 to 100 |
| N#Cc1cccc([C@@H]2CC=NN2C(=O)C2CCN(c3ncc(F)c(N)n3)CC2)c1 [Example 72, (S)-3-(1-(1-(4-amino-5-fluoropyrimidin-2-yl)piperidine-4-carbonyl)-4,5-dihydro-1H-pyrazol-5-yl)benzonitrile] | 1 to 31.6 nM | 1 to 100 |
| O=C(C1CCN(c2cnc3ccccc3n2)CC1)N1N=CC[C@H]1c1ccccc1 [Example 39, (S)-(5-phenyl-4,5-dihydro-1H-pyrazol-1-yl)(1-(quinoxalin-2-yl)piperidin-4-yl)methanone] | 1 to 31.6 nM and 1 to 10 nM | 1 to 100 |
| Nc1nccc(N2CCC(C(=O)N3N=CC[C@H]3c3ccccc3)CC2)n1 [Example 11, (S)-(1-(2-aminopyrimidin-4-yl)piperidin-4-yl)(5-phenyl-4,5-dihydro-1H-pyrazol-1-yl)methanone] | 1 to 31.6 nM | 1 to 100 |
| O=C(C1CCN(c2ncc3[nH]cnc3n2)CC1)N1N=CC[C@H]1c1ccccc1 [Example 9, (S)-(1-(7H-purin-2-yl)piperidin-4-yl)(5-phenyl-4,5-dihydro-1H-pyrazol-1-yl)methanone] | 1 to 31.6 nM | 1 to 100 |
| N#Cc1cncnc1N1CCC(C(=O)N2N=CC[C@H]2c2cc(F)cc(F)c2)CC1 [Example 88, (S)-4-(4-(5-(3,5-difluorophenyl)-4,5-dihydro-1H-pyrazole-1-carbonyl)piperidin-1-yl)pyrimidine-5-carbonitrile] | 1 to 31.6 nM | 1 to 100 |
